Here are results for 26 compounds from publication PMC7139388, “Benzothiazolyl Ureas are Low Micromolar and Uncompetitive Inhibitors of 17β-HSD10 with Implications to Alzheimer’s Disease Treatment” (International Journal of Molecular Sciences, 2020).

The structures appear in SMILES notation.

Series [1] has as its target T1, human 17β-HSD10 enzyme (Homo sapiens, UniProt Q99714).
T1 construct: made in house; host or cells: Escherichia coli BL21 (DE3)
T1 sequence (Q99714 1-261): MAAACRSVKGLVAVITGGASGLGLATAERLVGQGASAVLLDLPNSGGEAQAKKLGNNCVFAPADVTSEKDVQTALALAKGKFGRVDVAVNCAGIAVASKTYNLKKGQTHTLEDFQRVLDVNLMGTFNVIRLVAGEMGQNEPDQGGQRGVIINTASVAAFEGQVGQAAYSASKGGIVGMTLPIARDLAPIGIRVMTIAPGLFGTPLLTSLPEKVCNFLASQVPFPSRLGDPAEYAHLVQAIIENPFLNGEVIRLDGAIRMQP
Nature of the series: 17β-HSD10 enzyme inhibition screening and IC50 determination (AAC reductase assay, NADH absorbance at 340 nm). Format: biochemical. The conditions noted are these: 320 μM AAC, 320 μM NADH, 37 °C; for remaining activity at 10 µM: 10 μM compound, read-out: Percentage of Residual Activity at 10 μM. Here is the method:
The enzyme activity of the human recombinant 17β-HSD10 was determined from previously published methods using acetoacetyl-CoA (AAC) as a substrate. The method was based on the decrease in nicotinamide adenine dinucleotide (NADH) cofactor absorbance at 340 nm during its utilization by the enzyme. To establish the reaction properties correctly, the enzyme kinetic parameters were determined. […] The enzymatic activity of the recombinant protein was determined by using AAC as a substrate for enzyme reduction. To determine the Michaelis constant Km and maximal rate of enzyme reaction Vmax, different substrate concentrations ranging from 0 to 500 μM were incubated with a fixed concentration of cofactor and enzyme. The reaction readout was absorbance at 340 nm for 5 min in 20 s intervals at 37 °C. The data were analyzed by GraphPad Prism 7 (GraphPad Software Inc., San Diego, CA, USA) and Vmax and Km were calculated by non-linear regression analysis using the reaction velocity and substrate concentration data. All reactions were measured in triplicate, and the values were expressed as means ± SD. The general reaction mixture for the reductase activity measurement consisted of 320 μM AAC, 320 μM NADH as the enzyme cofactor and 0.15 μg of recombinant enzyme in assay buffer (10 mM Tris-HCl, pH 7.4, 150 mM NaCl, 1 mM dithiothreitol, 0.001% Tween 20 and 0.01% bovine serum albumin) in 100 µL of reaction buffer. The process was as follows: the reaction mixture of enzyme and cofactor in assay buffer was preincubated for 5 min at 37 °C prior to substrate addition. The reaction was performed in 96-well polystyrene plates at 37 °C (Tecan Spark 10M, Männedorf, Switzerland), and enzyme activity was recorded as the change in absorbance at 340 nm over 1 min and calculated using the molar extinction coefficient of NADH (ε = 6220 M^−1·cm^−1). The novel compounds were screened at 10 μM or 1 μM to determine their ability to inhibit 17β-HSD10 enzyme. The tested compounds were dissolved in dimethyl sulfoxide (DMSO) to a stock concentration of 10 mM and then diluted into deionized water to get the working concentration. The inhibitory screening was based on AAC reductase assay. The remaining enzyme activity was measured at 340 nm at 20 s intervals for 5 min and determined as the difference in absorbance between inhibited and non-inhibited enzymatic reaction. The DMSO was used as well as the inhibitor as the vehicle control. The potent known 17β-HSD10 inhibitor AG18051 [19] was used as a control for the enzymatic reaction. For compounds with at least 50% 17β-HSD10 inhibition in the 10 µM screening assay, the IC50 was determined. For this purpose, the AAC reductase assay was used and the remaining enzyme activity was measured as dose-response inhibition with at least six different inhibitor concentrations (ranging from 0 to 3 μM) at fixed substrate, enzyme, and cofactor concentrations. The data were analyzed by using GraphPad Prism 7 software in non-linear regression, and IC50 values were calculated for each inhibitor from at least three independent measurements, all in triplicate.

Broadly, the melting point is the temperature of the solid-liquid transition. For orientation: IC50 means the concentration that inhibits the measured activity by half. In the case of `Cc1ccc2nc(NC(=O)Nc3ccc(O)c(Cl)c3)sc2c1` [Compound 4ay, 1-(3-chloro-4-hydroxyphenyl)-3-(6-methylbenzo[d]thiazol-2-yl)urea], the melting point lay in the range of 281 to 283 °C. Also, in series [1], the remaining activity at 10 µM is 43.9 ± 3.7% and the IC50 was determined as 5.5 ± 1.4 µM.
On the same counts, the results for `O=C(Nc1ccc(O)c(Cl)c1)Nc1nc2ccc(C(F)(F)F)cc2s1` [Compound 4az, 1-(3-chloro-4-hydroxyphenyl)-3-(6-(trifluoromethyl)benzo[d]thiazol-2-yl)urea] are 223 to 225 °C, 49 ± 7.3% and 3.4 ± 1.1 µM.
On the same counts, the results for `COc1ccc2nc(NC(=O)Nc3ccc(O)c(Cl)c3)sc2c1` [Compound 4ba, 1-(3-chloro-4-hydroxyphenyl)-3-(6-methoxybenzo[d]thiazol-2-yl)urea] are 281 to 283 °C, 38.3 ± 3.2% and 2.4 ± 0.6 µM.
In turn, `CC(=O)c1ccc2nc(NC(=O)Nc3ccc(O)c(Cl)c3)sc2c1` [Compound 4bc, 1-(6-acetylbenzo[d]thiazol-2-yl)-3-(3-chloro-4-hydroxyphenyl)urea] showed a melting point of 242 to 244 °C. For the same compound, in series [1], the remaining activity at 10 µM is 61.4 ± 3.2%.
The corresponding values for `COC(=O)c1ccc2nc(NC(=O)Nc3ccc(O)c(Cl)c3)sc2c1` [Compound 4bd, methyl 2-(3-(3-chloro-4-hydroxyphenyl)ureido)benzo[d]thiazole-6-carboxylate] are 278 to 280 °C and 72.6 ± 2.4%.
`N#Cc1ccc2nc(NC(=O)Nc3ccc(O)c(Cl)c3)sc2c1` [Compound 4be, 1-(3-chloro-4-hydroxyphenyl)-3-(6-cyanobenzo[d]thiazol-2-yl)urea]: the melting point was 309 to 311 °C. Moreover, in series [1], the remaining activity at 10 µM amounted to 72.1 ± 3.5%.
In turn, `O=C(Nc1ccc(O)c(Cl)c1)Nc1nc2ccc([N+](=O)[O-])cc2s1` [Compound 4bf, 1-(3-chloro-4-hydroxyphenyl)-3-(6-nitrobenzo[d]thiazol-2-yl)urea] showed a melting point of 277 to 279 °C. Further, in series [1], the remaining activity at 10 µM was determined as 55.7 ± 7.2% and the IC50 came to 5 ± 1.2 µM.
In the case of `COc1ccc2nc(NC(=O)Nc3ccc(O)cc3F)sc2c1` [Compound 4c, 1-(2-fluoro-4-hydroxyphenyl)-3-(6-methoxybenzo[d]thiazol-2-yl)urea], the melting point was 241 °C (dec.). For the same compound, the remaining activity at 10 µM in series [1] is 74.9 ± 6.5%.
In turn, `O=C(Nc1ccc(O)c(F)c1)Nc1nc2ccc(F)cc2s1` [Compound 4d, 1-(3-fluoro-4-hydroxyphenyl)-3-(6-fluorobenzo[d]thiazol-2-yl)urea] yielded a melting point of 243 to 244 °C. The remaining activity at 10 µM in series [1] was 85 ± 2.1%.
The corresponding values for `O=C(Nc1ccc(O)c(F)c1)Nc1nc2ccc(Cl)cc2s1` [Compound 4e, 1-(6-chlorobenzo[d]thiazol-2-yl)-3-(3-fluoro-4-hydroxyphenyl)urea] are 281 to 282 °C (dec.) and 80.2 ± 4.2%.
The corresponding values for `COc1ccc2nc(NC(=O)Nc3ccc(O)c(F)c3)sc2c1` [Compound 4f, 1-(3-fluoro-4-hydroxyphenyl)-3-(6-methoxybenzo[d]thiazol-2-yl)urea] are 250 °C (dec.) and 84.5 ± 4.8%.
The corresponding values for `O=C(Nc1cc(F)c(O)c(F)c1)Nc1nc2ccc(F)cc2s1` [Compound 4g, 1-(3,5-difluoro-4-hydroxyphenyl)-3-(6-fluorobenzo[d]thiazol-2-yl)urea] are 317 to 319 °C and 62.5 ± 3.7%.
`O=C(Nc1cc(F)c(O)c(F)c1)Nc1nc2ccc(Cl)cc2s1` [Compound 4h, 1-(6-chlorobenzo[d]thiazol-2-yl)-3-(3,5-difluoro-4-hydroxyphenyl)urea] gave a melting point of 304 °C. In addition, the remaining activity at 10 µM in series [1] stood at 58.3 ± 2.5%.
The corresponding values for `COc1ccc2nc(NC(=O)Nc3cc(F)c(O)c(F)c3)sc2c1` [Compound 4i, 1-(3,5-difluoro-4-hydroxyphenyl)-3-(6-methoxybenzo[d]thiazol-2-yl)urea] are 161 to 162 °C and 56.9 ± 4.4%.
On the same counts, the results for `O=C(Nc1nc2ccc(F)cc2s1)Nc1ccc(F)cc1O` [Compound 4j, 1-(4-fluoro-2-hydroxyphenyl)-3-(6-fluorobenzo[d]thiazol-2-yl)urea] are 226 to 228 °C (dec.) and 85.6 ± 3.2%.
The corresponding values for `O=C(Nc1nc2ccc(Cl)cc2s1)Nc1ccc(F)cc1O` [Compound 4k, 1-(6-chlorobenzo[d]thiazol-2-yl)-3-(4-fluoro-2-hydroxyphenyl)urea] are 216 to 218 °C (dec.) and 91.8 ± 5.7%.
Regarding `COc1ccc2nc(NC(=O)Nc3ccc(F)cc3O)sc2c1` [Compound 4l, 1-(4-fluoro-2-hydroxyphenyl)-3-(6-methoxybenzo[d]thiazol-2-yl)urea], the melting point is 207 to 208 °C (dec.). Moreover, in series [1], the remaining activity at 10 µM amounted to 92.1 ± 2.5%.
Consider `O=C(Nc1nc2ccc(F)cc2s1)Nc1ccc(F)c(F)c1O` [Compound 4m, 1-(3,4-difluoro-2-hydroxyphenyl)-3-(6-fluorobenzo[d]thiazol-2-yl)urea], for which the melting point is 209 to 210 °C. Moreover, the remaining activity at 10 µM in series [1] amounted to 80.5 ± 5.7%.
The corresponding values for `O=C(Nc1nc2ccc(Cl)cc2s1)Nc1ccc(F)c(F)c1O` [Compound 4n, 1-(6-chlorobenzo[d]thiazol-2-yl)-3-(3,4-difluoro-2-hydroxyphenyl)urea] are 212 to 213 °C and 68.7 ± 7.6%.
On the same counts, the results for `COc1ccc2nc(NC(=O)Nc3ccc(F)c(F)c3O)sc2c1` [Compound 4o, 1-(3,4-difluoro-2-hydroxyphenyl)-3-(6-methoxybenzo[d]thiazol-2-yl)urea] are 198 to 200 °C and 69.8 ± 5.7%.
For the compound `COc1c(F)cccc1NC(=O)Nc1nc2ccc(F)cc2s1` [Compound 4p, 1-(3-fluoro-2-methoxyphenyl)-3-(6-fluorobenzo[d]thiazol-2-yl)urea], the melting point is 366 to 368 °C (dec.). Moreover, the remaining activity at 10 µM in series [1] amounted to 82.8 ± 4.1%.
Turning to `COc1c(F)cccc1NC(=O)Nc1nc2ccc(Cl)cc2s1` [Compound 4q, 1-(6-chlorobenzo[d]thiazol-2-yl)-3-(3-fluoro-2-methoxyphenyl)urea], the melting point is 341 to 343 °C (dec.). Moreover, the remaining activity at 10 µM in series [1] came to 69.3 ± 4.1%.
For the compound `COc1ccc2nc(NC(=O)Nc3cccc(F)c3OC)sc2c1` [Compound 4r, 1-(3-fluoro-2-methoxyphenyl)-3-(6-methoxybenzo[d]thiazol-2-yl)urea], the melting point is 329 to 331 °C (dec.). For the same compound, the remaining activity at 10 µM in series [1] came out at 76.6 ± 3.2%.
In the case of `COc1cc(F)ccc1NC(=O)Nc1nc2ccc(F)cc2s1` [Compound 4s, 1-(4-fluoro-2-methoxyphenyl)-3-(6-fluorobenzo[d]thiazol-2-yl)urea], the melting point was 364 to 366 °C (dec.). The remaining activity at 10 µM in series [1] turned out to be 80.5 ± 2.9%.
On the same counts, the results for `COc1cc(F)ccc1NC(=O)Nc1nc2ccc(Cl)cc2s1` [Compound 4t, 1-(6-chlorobenzo[d]thiazol-2-yl)-3-(4-fluoro-2-methoxyphenyl)urea] are 356 to 358 °C (dec.) and 72.4 ± 4.8%.
As for `COc1ccc2nc(NC(=O)Nc3ccc(F)cc3OC)sc2c1` [Compound 4u, 1-(4-fluoro-2-methoxyphenyl)-3-(6-methoxybenzo[d]thiazol-2-yl)urea], the melting point is 324 °C (dec.). Besides, in series [1], the remaining activity at 10 µM turned out to be 71 ± 1.7%.
